Patent publication US20240238235A1, “METHODS AND COMPOSITIONS FOR TREATING PULMONARY ALVEOLAR PROTEINOSIS RELATED TO MARS MUTATIONS” (INSTITUT NATIONAL DE LA SANTÉ ET DE LA RECHERCHE MÉDICALE, priority 2021, published 2024)
Read-outs that look alike come from different tables or passages of the source.

Key:
[1] = tested on: patients presenting pulmonary alveolar proteinosis due to the double mutation Ala393Thr/Ser567Leu in MARS
From the text: (§1) The MetPAP study was registered at clinicaltrials.gov (NCT03887169). […] The secondary objectives were to determine the efficacy of such treatment.

[2] = Protocol: The level of methioninemia in a healthy subject should be measured on an empty stomach and should be less than 45 μM. Typically, in the subject affected by MARS mutations, the level of methioninemia to reach efficacy should be in the range of 45-500 μM (>45 μM at residual dosage and <500 μM at peak dosage 1 hour after the dose has been taken). The level of methioninemia is measured with the following methods. […] For accurate quantification, stable isotope internal standards of the same structure for each metabolite (Eurisotop, Saint Aubin, France) are added to samples before protein precipitation. Internal standards are labeled on all carbons and nitrogen(s) with following exceptions: glutamine 2,3,3,4,4-D5, asparagine ^13C4, tryptophan Indole-D5, citrulline ^13CD4 and homocysteine 3,3,3′,3′,4,4,4′,4′-D8. Samples are first derivatized using the AccQ Tag™ Ultra (Waters Corporation, Milford, MA, USA) according to manufacturer recommendations. Amino acid separation is performed with an Acquity™ UPLC system using a CORTECS™ UPLC C18 column (1.6 μm, 2.1×150 mm) coupled to microTQS™ tandem mass spectrometer (Waters Corporation, Milford, MA, USA). The run time for quantification of all amino acids is 12 min.
as §1
The frequency of medication was based on the known half-life of the moleculel and the peak was determined by performing kinetic measurements on the patients during the first day of supplementation.

peripheral monocytes = details: control = 100%
Protocol: Peripheral monocyte and phagocyte functions were assessed by quantifying ROS production. Whole blood collected from lithium heparinized tubes (500 μl) was incubated for 15 min at 37° C. with dihydrorhodamine 123[…] (Sigma-Aldrich). Samples were then treated for 1 h at 37° C. with GM-CSF (10 ng/ml; R&D Systems), followed by stimulation for 5 min with fMLF (10^-5M; Sigma-Aldrich). The reaction was stopped by adding 1 ml ice-cold lysis solution (BD Biosciences) and incubating for 5 min on ice. Samples were then washed with PBS (Sigma-Aldrich) and the pellets resuspended in 300 μl FacsFlow solution (BD Biosciences). Samples were analyzed by flow cytometry on a FACSCanto II (BD Biosciences). Phagocytes (neutrophils and monocytes) were selected on the FSC-SSC dot plot. Events (50,000) were recorded at a constant PMT voltage. Results are expressed as the index of stimulation (MIF DHE GM-CSF+fMLP/DHE GM-CSF alone).

[3] = tested on: pulmonary alveolar proteinosis related to MARS mutations; details: P1, 3 and 4
From the text: We compared the course of treated patients to that of patients reported by Enaud et al. 2 as well as seven patients diagnosed since this publication. Data collection and analysis for these patients were approved by the Institutional Review Board of the French Respiratory Society (CEPRO2013-019) and the CPP Île de France II (CPP2013-12-03 SC).
Several parameters were compared between treated patients and HC. We computed the difference between the values for each continuous variable at inclusion and at last follow-up for each treated patient, as well as between diagnosis and six months to one year from diagnosis for the HC. Differences were compared between groups using Mann-Whitney tests. For each categorical variable (i.e., weaning from oxygen and enteral nutrition), we compared the proportion of patients who were weaned from such support at the second assessment between groups using Fisher's exact test. A p-value<0.05 was considered statistically significant.

[4] = tested on: pulmonary alveolar proteinosis related to MARS mutations
From the text: Eight patients started the treatment from the age of 11 to 24 years old. […] In the 7 seven remaining patients, treatment was started less than one year ago and will be assessed in the next months.

[5] = tested on: patients with MAT I/III deficiency; details: large series of patients with MAT I/III deficiency; cited from earlier work
[6] = tested on: subjects receiving a loading dose of methionine; details: cited from earlier work

## CSCC[C@H](N)C(=O)O [methionine, L-methionine]
[1]; P3, D21, judged not attributable to a toxic effect of methionine
  elevated transaminases (multiple of normal value): > 3 N
[1]; during the protocol and after
  Tolerance of methionine supplementation: well tolerated
[2]; P3, D21 of treatment
  methioninemia at T0 (residual): 42 µM
[2]; kinetic study in the patients
  time of peak plasma methionine after taking the medication: 1 h
[2]; treatment every 6 h
  residual and peak plasma methionine values over 24-h periods, days and months: reproducible residual and peak values
Peripheral monocytes; P1, after three months of treatment (M3)
  stimulation index relative to control (GM-CSF priming of ROS production by peripheral monocytes): 109%
Peripheral monocytes; P3, after three months of treatment (M3)
  stimulation index relative to control (GM-CSF priming of ROS production by peripheral monocytes): 73%
[3]; p=0.011, 0.039, 0.006, 0.038
  change M0 to M6-M12 of blood neutrophils, CRP, albumin and GGT versus HC: greater improvement
[3]; vs 1/15 HC, p=0.056
  patients weaned off oxygen at the second assessment: 2/3
[3]; vs none of 18 HC, p=0.014
  patients weaned off enteral nutrition at the second assessment: 2/3
[4]; 1 patient, treatment started 2 years ago
  clinical outcome: improve clinical respiratory status (regression of dry cough and exercise dyspnoea), to improve lung function (gain in forced vital capacity and diffuse capacity of carbon monoxide), and to improve chest CT scan (regression of ground glass opacities, stabilization of the fibrosis)
[4]; 2 patients treated between 1 and 2 years of age
  clinical outcome: stop whole lung lavages, to “clean” the chest CT scan from the alveolar consolidations and stop the progression of fibrotic lesions, to catch-up on weight and to normalize liver blood tests and inflammatory markers
[4]; 4 additional patients treated from diagnosis (3 to 6 months)
  clinical outcome: stop whole lung lavages or even to avoid it, to normalize the chest CT scan after 3 months of treatment, to normalize the liver blood tests and inflammatory markers, to catch-up on weight, and to wean off the oxygen and nutritional support initially required
[5]
  mean plasma methionine values at which CNS abnormalities were observed: > 800 µM
[6]
  adverse events (arterial blood pressure change, nausea and vomiting, dizziness, polyuria): mild and always transient
